Reference: US7709700B2, “Method for improving plant transformation efficiency by adding copper ion” (Japan Tobacco Inc., priority 2003, dated 2010)
Where two headings read alike, the source gives them in different places.

Columns and labels:
[1] = test system: immature embryos of rice (cultivar: Yukihikari); conditions: 0-50 μM in inoculum liquid media; co-culture one week; three experiments; FIG. 7
Procedure: An Agrobacterium tumefaciens super-binary vector designated LBA4404 (pSB134) cultured on AB medium containing 50 mg/l hygromycin and 50 mg/l spectinomycin for 3 to 4 days was scraped with a platinum loop and suspended at a concentration of about 10^9 cfu/ml in 1 ml of AA1 liquid medium containing 100 μM acetosyringone and 0-50 μM CuSO4.5H2O or copper gluconate. Into an Eppendorf tube containing aseptically collected immature embryos (cultivar: Yukihikari) was added 1 ml of the Agrobacterium suspension and the tube was agitated for 30 seconds in a vortex mixer and then allowed to stand at room temperature for 5 minutes. The immature embryos were seeded on nN6-As medium and incubated in darkness at 25° C. for one week.
The weight of co-cultured immature embryos was measured.

[2] = test system: regenerated plants of rice (cultivar: Yukihikari); conditions: 10 μM in N6R regeneration medium, 3 weeks; FIG. 9
Procedure: Immature embryos of rice (cultivar: Yukihikari) were inoculated with Agrobacterium tumefaciens LBA4404 (pSB134) and cultured on nN6CC medium (N6 salts, N6 vitamins, 0.5 g/l casamino acids, 0.5 g/l L-proline, 1 mg/l 2,4-D, 0.5 mg/l NAA, 0.1 mg/l 6BA, 20 g/l sucrose, 55 g/l sorbitol, 250 mg/l cefotaxime, 250 mg/l carbenicillin, 5 g/l Gelrite, pH 5.8) containing hygromycin to give a transformed callus. The transformed callus was cut into a size of about 2 mm and seeded on N6R regeneration medium (N6 salts with major salts reduced to ½, N6 vitamins, AA amino acids, 1 g/l casamino acids, 0.5 mg/l kinetin, 20 g/l sucrose, 30 g/l sorbitol, 4 g/l Gelrite, pH 5.8) containing 10 μM CuSO4.5H2O or copper gluconate, and hygromycin. After incubation at 25° C. under illumination for 3 weeks, the leaf length of regenerated plants was measured.

[3] = test system: immature embryos of maize (cultivar: A188); conditions: 3 days
[4] = test system: regenerated plants of maize (cultivar: A188); conditions: 10 μM in LSZ regeneration medium, 3 weeks; FIG. 8
Procedure: The transformed callus was cut into a size of about 2 mm and plated on LSZ regeneration medium containing 10 μM CuSO4.5H2O or copper gluconate, and PPT. After incubation at 25° C. under illumination for 3 weeks, the leaf length of regenerated plants was measured.

[5] = test system: immature embryos of maize (cultivar: A188); experiment: Callus formation of immature embryos after 7 days on co-culture media; type: cell-based; conditions: 1 week, FIG. 6
[6] = test system: immature embryos of maize (cultivar: H99)
[7] = test system: shoots having emerged from ripe seeds of barley; conditions: cited from earlier work
anthers of wheat = conditions: medium containing 10 mg/l copper sulfate and 2.5-5 mg/l silver nitrate; cited from earlier work
[8] = test system: immature embryos of rice (cultivar: IR64); conditions: 5 μM copper sulfate in co-culture medium, 1 week; FIG. 4
Procedure: Into an Eppendorf tube containing aseptically collected immature embryos (cultivar: IR64) was added 1 ml of the Agrobacterium suspension and the tube was agitated for 30 seconds in a vortex mixer and then allowed to stand at room temperature for 5 minutes.

[9] = test system: immature embryos of maize (cultivar: A188)
Source text: Transformation efficiency can be calculated by e.g., counting the number of regenerated plants expressing the GUS gene as transformants among those obtained from inoculated immature embryos and dividing the total number by the number of inoculated immature embryos. Alternatively, it can also be calculated by counting the number of regenerated plants showing resistance against a selective pressure as transformants and dividing the total number by the number of inoculated immature embryos.
(§1) These calli were cultured on the same medium containing 10 mg/l PPT for 6 weeks under the same conditions. Grown PPT-resistant calli were seeded on LSZ regeneration medium (LSD 1.5 medium deprived of 2,4-D and supplemented with 5 mg/l zeatin) and incubated at 25° C. under illumination for 2-3 weeks. Leaf segments of regenerated plants were excised and assessed for the expression of the GUS gene by X-gluc.
After co-culture for 1 week, the calli grown from immature embryos (cultivar: A188) cultured on a selective medium containing PPT for 1 week were evaluated on a scale of four ratings from 0 (no callus formed) to 3 (the entire scutellum formed callus).

[10] = test system: calli obtained by culturing immature embryos of rice; conditions: media containing copper sulfate; cited from earlier work
[11] = test system: calli obtained by culturing immature embryos of barley; conditions: media containing copper sulfate; cited from earlier work
[12] = test system: immature embryos of maize (cultivar: A188); conditions: co-culture 1 week on media containing copper sulfate, then 1 week on PPT selective medium; FIG. 3
Procedure: as §1
After co-culture for 1 week, the calli grown from immature embryos (cultivar: A188) cultured on a selective medium containing PPT for 1 week were evaluated on a scale of four ratings from 0 (no callus formed) to 3 (the entire scutellum formed callus). […] Further selection on a medium containing PPT and incubation of the resulting calli in a regeneration medium containing PPT gave PPT-resistant plants. Leaf segments of these plants were excised and assessed for the expression of the GUS gene.

[13] = test system: immature embryos of maize (cultivar: H99); conditions: media containing 1-10 μM copper sulfate (1-100 μM tested); but slightly; cited from earlier work
[14] = 1 μM CuSO4 in co-culture medium, 13 inoculated immature embryos
[15] = 5 μM CuSO4 in co-culture medium, 13 inoculated immature embryos
[16] = 10 μM CuSO4 in co-culture medium, 14 inoculated immature embryos

Compound: copper gluconate
- growth (weight) of co-cultured immature embryos vs control medium [1]: more active growth
- leaf length of regenerated plants vs control regeneration medium [2]: significantly longer
- area of the scutellum showing transient expression of the GUS gene vs control medium ([3]; 1, 5 and 10 μFM copper gluconate in co-culture media, heat/centrifugation pretreatment, FIG. 5): wider area
- leaf length of regenerated plants vs control regeneration medium [4]: significantly longer
- callus formation vs medium lacking copper gluconate ([5]; 1, 5 and 10 μM copper gluconate in co-culture media): higher callus formation
- callus formation vs control ([5]; 5 and 10 μM copper gluconate in co-culture media): significantly higher callus formation

Compound: O=[N+]([O-])[O-].[Ag+] [silver nitrate, reference compound]
- callus growth vs control medium ([6]; 5 μM silver nitrate in co-culture medium, 3 days, then about 4 weeks without selection, FIG. 2): nearly comparable

Compound: OC[C@H]1O[C@H](O[C@H]2[C@H](O)[C@@H](O)C(O)O[C@@H]2CO)[C@H](O)[C@@H](O)[C@@H]1O (mixture of isomers) [maltose, reference compound]
- brown tissue when shoot meristematic cultures are induced [7]: effective for decreasing brown tissue

Compound: O=S(=O)([O-])[O-].[Cu+2] [copper sulfate]
- embryoid formation (anthers of wheat): increases
- area of the scutellum showing transient expression of the GUS gene vs control medium [8]: wider area
- growth (weight) of co-cultured immature embryos vs control medium [1]: more active growth
- average callus diameter greater than that on control co-culture medium [6]: ≥ 2 mm
- Transformation efficiency (B/A, %) ([9]; 1 μM CuSO4 in co-culture medium): 15.4%
- Number of GUS-positive plants (B) [9, 14]: 2
- Number of regenerated plants [9, 14]: 2
- Transformation efficiency (B/A, %) ([9]; 5 μM CuSO4 in co-culture medium): 46.2%
- Number of GUS-positive plants (B) [9, 15]: 6
- Number of regenerated plants [9, 15]: 6
- Transformation efficiency (B/A, %) ([9]; 10 μM CuSO4 in co-culture medium): 35.7%
- Number of GUS-positive plants (B) [9, 16]: 5
- Number of regenerated plants [9, 16]: 6
- leaf length of regenerated plants vs control regeneration medium [2]: significantly longer
- area of the scutellum showing transient expression of the GUS gene vs control medium ([3]; 1, 5 and 10 μM copper sulfate in co-culture media, with or without heat/centrifugation pretreatment, FIG. 1): wider area
- regeneration ratio or number of regenerated plants per callus [10]: increases
- leaf length of regenerated plants vs control regeneration medium [4]: significantly longer
- regeneration ratio or number of regenerated plants per callus [11]: increases
- PPT-resistant callus formation vs control medium [12]: higher callus formation
- shoot growth when shoot meristematic cultures are induced [7]: effective for promoting shoot growth
- induction ratio of shoot meristematic cultures (SMCs) ([7]; medium containing 5 μM copper sulfate and 30 g/l maltose): increases
- callus formation from immature embryos [13]: improved
